Source: US11306117B2, “Whitening composition containing novel quercetin-based compound” (AMOREPACIFIC CORPORATION, priority 2017, dated 2022)

Test system: healthy adult examinees
Assay: HRIPT (Human repeated insult patch tests), skin accumulated stimulus
Type: in vivo
Parameters: key to skin reactivity (ICDRG criteria): −: negative (no response); ±: doubtful or slight erythema, etc.; +: weak reaction (which is accompanied with no phlyctenule), erythema, papule; ++: severe reaction (which is accompanied with phylctenule), erythema, papule, phlyctenule; +++: strong reaction, bullae reaction
Conditions: for average reactivity: 9 patches, 15 examinees; for Number of examinees who exhibited ±, +, or ++ reactivity 1st: 1st patch; for Number of examinees who exhibited ±, +, or ++ reactivity 2nd: 2nd patch; for Number of examinees who exhibited ±, +, or ++ reactivity 3rd: 3rd patch; for Number of examinees who exhibited ±, +, or ++ reactivity 4th: 4th patch; for Number of examinees who exhibited ±, +, or ++ reactivity 5th: 5th patch; for Number of examinees who exhibited ±, +, or ++ reactivity 6th: 6th patch; for Number of examinees who exhibited ±, +, or ++ reactivity 7th: 7th patch; for Number of examinees who exhibited ±, +, or ++ reactivity 8th: 8th patch; for Number of examinees who exhibited ±, +, or ++ reactivity 9th: 9th patch
Experimental: HRIPT (Human repeated insult patch tests) was conducted in order to identify skin accumulated stimulus of quercetin3-O-[3-O″-(E)-p-coumaroyl][β-D-glucopyranosyl-(1→3)-O-α-L-rhamnopyranosyl-(1→6)-O-β-D-glucopyranoside] and quercetin3-O-[3-O″-(E)-p-coumaroyl][α-L-rhamnopyranosyl-(1→6)-O-β-D-glucopyranoside]and to calculate the concentration range that can be used in skin.
Specifically, 15 healthy adult examinees were randomly selected, and test compositions in which the compounds were respectively comprised in an amount of 0.5 wt. %, 1 wt. %, and 3 wt. % (the compositions for skin, comprising an emulsifying agent, a stabilizer, purified water, etc. in addition to the compounds) were dropped in the amount of 20 μl per chamber (IQ chamber, Epitest Ltd, Finland), and patched on the right site of the upper back of the examinees, and then, after 24 hours, the patch was replaced with a new patch. A total of 9 patches were conducted, three times a week for total 3 weeks, in such manner, the skin reactions before and after patch were examined every time, and the skin reactions until 48 hours after removing the final patch were observed, and the average reactivity was observed.
The skin reaction was determined according to the criteria of International Contact Dermatitis Research Group (ICDRG). In the above table, “New Material 31” refers to quercetin3-O-[3-O″-(E)-p-coumaroyl][β-D-glucopyranosyl-(1→3)-O-α-L-rhamnopyranosyl-(1→6)-O-β-D-glucopyranoside], and “New Material 32” refers to quercetin3-O-[3-O″-(E)-p-coumaroyl][α-L-rhamnopyranosyl-(1→6)-O-β-D-glucopyranoside].

C[C@@H]1O[C@@H](OC[C@H]2O[C@@H](Oc3c(-c4ccc(O)c(O)c4)oc4cc(O)cc(O)c4c3=O)[C@H](O)[C@@H](OC(=O)/C=C/c3ccc(O)cc3)[C@@H]2O)[C@H](O)[C@H](O[C@@H]2O[C@H](CO)[C@@H](O)[C@H](O)[C@H]2O)[C@H]1O [New Material 31, quercetin3-O-[3-O″-(E)-p-coumaroyl][β-D-glucopyranosyl-(1→3)-O-α-L-rhamnopyranosyl-(1→6)-O-β-D-glucopyranoside]]
average reactivity (0.5 wt.% in test composition): 0 | skin reactivity (ICDRG criteria) (0.5 wt.%, 1 wt.% and 3 wt.%, 9 patches in 3 weeks): − | Number of examinees who exhibited ±, +, or ++ reactivity 1st (0.5 wt.%, line 1 of 3 (±)): 0 number | Number of examinees who exhibited ±, +, or ++ reactivity 1st (0.5 wt.%, line 2 of 3 (+)): 0 number | Number of examinees who exhibited ±, +, or ++ reactivity 1st (0.5 wt.%, line 3 of 3 (++)): 0 number | Number of examinees who exhibited ±, +, or ++ reactivity 2nd (0.5 wt.%, line 1 of 3 (±)): 0 number | Number of examinees who exhibited ±, +, or ++ reactivity 2nd (0.5 wt.%, line 2 of 3 (+)): 0 number | Number of examinees who exhibited ±, +, or ++ reactivity 2nd (0.5 wt.%, line 3 of 3 (++)): 0 number | Number of examinees who exhibited ±, +, or ++ reactivity 3rd (0.5 wt.%, line 1 of 3 (±)): 0 number | Number of examinees who exhibited ±, +, or ++ reactivity 3rd (0.5 wt.%, line 2 of 3 (+)): 0 number | Number of examinees who exhibited ±, +, or ++ reactivity 3rd (0.5 wt.%, line 3 of 3 (++)): 0 number | Number of examinees who exhibited ±, +, or ++ reactivity 4th (0.5 wt.%, line 1 of 3 (±)): 0 number | Number of examinees who exhibited ±, +, or ++ reactivity 4th (0.5 wt.%, line 2 of 3 (+)): 0 number | Number of examinees who exhibited ±, +, or ++ reactivity 4th (0.5 wt.%, line 3 of 3 (++)): 0 number | Number of examinees who exhibited ±, +, or ++ reactivity 5th (0.5 wt.%, line 1 of 3 (±)): 0 number | Number of examinees who exhibited ±, +, or ++ reactivity 5th (0.5 wt.%, line 2 of 3 (+)): 0 number | Number of examinees who exhibited ±, +, or ++ reactivity 5th (0.5 wt.%, line 3 of 3 (++)): 0 number | Number of examinees who exhibited ±, +, or ++ reactivity 6th (0.5 wt.%, line 1 of 3 (±)): 0 number | Number of examinees who exhibited ±, +, or ++ reactivity 6th (0.5 wt.%, line 2 of 3 (+)): 0 number | Number of examinees who exhibited ±, +, or ++ reactivity 6th (0.5 wt.%, line 3 of 3 (++)): 0 number | Number of examinees who exhibited ±, +, or ++ reactivity 7th (0.5 wt.%, line 1 of 3 (±)): 0 number | Number of examinees who exhibited ±, +, or ++ reactivity 7th (0.5 wt.%, line 2 of 3 (+)): 0 number | Number of examinees who exhibited ±, +, or ++ reactivity 7th (0.5 wt.%, line 3 of 3 (++)): 0 number | Number of examinees who exhibited ±, +, or ++ reactivity 8th (0.5 wt.%, line 1 of 3 (±)): 0 number | Number of examinees who exhibited ±, +, or ++ reactivity 8th (0.5 wt.%, line 2 of 3 (+)): 0 number | Number of examinees who exhibited ±, +, or ++ reactivity 8th (0.5 wt.%, line 3 of 3 (++)): 0 number | Number of examinees who exhibited ±, +, or ++ reactivity 9th (0.5 wt.%, line 1 of 3 (±)): 0 number | Number of examinees who exhibited ±, +, or ++ reactivity 9th (0.5 wt.%, line 2 of 3 (+)): 0 number | Number of examinees who exhibited ±, +, or ++ reactivity 9th (0.5 wt.%, line 3 of 3 (++)): 0 number | average reactivity (1 wt.% in test composition): 0 | Number of examinees who exhibited ±, +, or ++ reactivity 1st (1 wt.%, line 1 of 3 (±)): 0 number | Number of examinees who exhibited ±, +, or ++ reactivity 1st (1 wt.%, line 2 of 3 (+)): 0 number | Number of examinees who exhibited ±, +, or ++ reactivity 1st (1 wt.%, line 3 of 3 (++)): 0 number | Number of examinees who exhibited ±, +, or ++ reactivity 2nd (1 wt.%, line 1 of 3 (±)): 0 number | Number of examinees who exhibited ±, +, or ++ reactivity 2nd (1 wt.%, line 2 of 3 (+)): 0 number | Number of examinees who exhibited ±, +, or ++ reactivity 2nd (1 wt.%, line 3 of 3 (++)): 0 number | Number of examinees who exhibited ±, +, or ++ reactivity 3rd (1 wt.%, line 1 of 3 (±)): 0 number | Number of examinees who exhibited ±, +, or ++ reactivity 3rd (1 wt.%, line 2 of 3 (+)): 0 number | Number of examinees who exhibited ±, +, or ++ reactivity 3rd (1 wt.%, line 3 of 3 (++)): 0 number | Number of examinees who exhibited ±, +, or ++ reactivity 4th (1 wt.%, line 1 of 3 (±)): 0 number | Number of examinees who exhibited ±, +, or ++ reactivity 4th (1 wt.%, line 2 of 3 (+)): 0 number | Number of examinees who exhibited ±, +, or ++ reactivity 4th (1 wt.%, line 3 of 3 (++)): 0 number | Number of examinees who exhibited ±, +, or ++ reactivity 5th (1 wt.%, line 1 of 3 (±)): 0 number | Number of examinees who exhibited ±, +, or ++ reactivity 5th (1 wt.%, line 2 of 3 (+)): 0 number | Number of examinees who exhibited ±, +, or ++ reactivity 5th (1 wt.%, line 3 of 3 (++)): 0 number | Number of examinees who exhibited ±, +, or ++ reactivity 6th (1 wt.%, line 1 of 3 (±)): 0 number | Number of examinees who exhibited ±, +, or ++ reactivity 6th (1 wt.%, line 2 of 3 (+)): 0 number | Number of examinees who exhibited ±, +, or ++ reactivity 6th (1 wt.%, line 3 of 3 (++)): 0 number | Number of examinees who exhibited ±, +, or ++ reactivity 7th (1 wt.%, line 1 of 3 (±)): 0 number | Number of examinees who exhibited ±, +, or ++ reactivity 7th (1 wt.%, line 2 of 3 (+)): 0 number | Number of examinees who exhibited ±, +, or ++ reactivity 7th (1 wt.%, line 3 of 3 (++)): 0 number | Number of examinees who exhibited ±, +, or ++ reactivity 8th (1 wt.%, line 1 of 3 (±)): 0 number | Number of examinees who exhibited ±, +, or ++ reactivity 8th (1 wt.%, line 2 of 3 (+)): 0 number | Number of examinees who exhibited ±, +, or ++ reactivity 8th (1 wt.%, line 3 of 3 (++)): 0 number | Number of examinees who exhibited ±, +, or ++ reactivity 9th (1 wt.%, line 1 of 3 (±)): 0 number | Number of examinees who exhibited ±, +, or ++ reactivity 9th (1 wt.%, line 2 of 3 (+)): 0 number | Number of examinees who exhibited ±, +, or ++ reactivity 9th (1 wt.%, line 3 of 3 (++)): 0 number | average reactivity (3 wt.% in test composition): 0 | Number of examinees who exhibited ±, +, or ++ reactivity 1st (3 wt.%, line 1 of 3 (±)): 0 number | Number of examinees who exhibited ±, +, or ++ reactivity 1st (3 wt.%, line 2 of 3 (+)): 0 number | Number of examinees who exhibited ±, +, or ++ reactivity 1st (3 wt.%, line 3 of 3 (++)): 0 number | Number of examinees who exhibited ±, +, or ++ reactivity 2nd (3 wt.%, line 1 of 3 (±)): 0 number | Number of examinees who exhibited ±, +, or ++ reactivity 2nd (3 wt.%, line 2 of 3 (+)): 0 number | Number of examinees who exhibited ±, +, or ++ reactivity 2nd (3 wt.%, line 3 of 3 (++)): 0 number | Number of examinees who exhibited ±, +, or ++ reactivity 3rd (3 wt.%, line 1 of 3 (±)): 0 number | Number of examinees who exhibited ±, +, or ++ reactivity 3rd (3 wt.%, line 2 of 3 (+)): 0 number | Number of examinees who exhibited ±, +, or ++ reactivity 3rd (3 wt.%, line 3 of 3 (++)): 0 number | Number of examinees who exhibited ±, +, or ++ reactivity 4th (3 wt.%, line 1 of 3 (±)): 0 number | Number of examinees who exhibited ±, +, or ++ reactivity 4th (3 wt.%, line 2 of 3 (+)): 0 number | Number of examinees who exhibited ±, +, or ++ reactivity 4th (3 wt.%, line 3 of 3 (++)): 0 number | Number of examinees who exhibited ±, +, or ++ reactivity 5th (3 wt.%, line 1 of 3 (±)): 0 number | Number of examinees who exhibited ±, +, or ++ reactivity 5th (3 wt.%, line 2 of 3 (+)): 0 number | Number of examinees who exhibited ±, +, or ++ reactivity 5th (3 wt.%, line 3 of 3 (++)): 0 number | Number of examinees who exhibited ±, +, or ++ reactivity 6th (3 wt.%, line 1 of 3 (±)): 0 number | Number of examinees who exhibited ±, +, or ++ reactivity 6th (3 wt.%, line 2 of 3 (+)): 0 number | Number of examinees who exhibited ±, +, or ++ reactivity 6th (3 wt.%, line 3 of 3 (++)): 0 number | Number of examinees who exhibited ±, +, or ++ reactivity 7th (3 wt.%, line 1 of 3 (±)): 0 number | Number of examinees who exhibited ±, +, or ++ reactivity 7th (3 wt.%, line 2 of 3 (+)): 0 number | Number of examinees who exhibited ±, +, or ++ reactivity 7th (3 wt.%, line 3 of 3 (++)): 0 number | Number of examinees who exhibited ±, +, or ++ reactivity 8th (3 wt.%, line 1 of 3 (±)): 0 number | Number of examinees who exhibited ±, +, or ++ reactivity 8th (3 wt.%, line 2 of 3 (+)): 0 number | Number of examinees who exhibited ±, +, or ++ reactivity 8th (3 wt.%, line 3 of 3 (++)): 0 number | Number of examinees who exhibited ±, +, or ++ reactivity 9th (3 wt.%, line 1 of 3 (±)): 0 number | Number of examinees who exhibited ±, +, or ++ reactivity 9th (3 wt.%, line 2 of 3 (+)): 0 number | Number of examinees who exhibited ±, +, or ++ reactivity 9th (3 wt.%, line 3 of 3 (++)): 0 number
